Test results: patent US10980238B2, “Alkali metal salt for use in treatment of varroa destructor mite infestation of honey bees” (Universität Hohenheim, priority 2015, dated 2021)
“And” between values parts separate entries of the source, which are not always exact repeats. Equal entries are not always repeated. Where two headings read alike, the source gives them in different places.

Columns and labels:
[1] = system: Varroa destructor; conditions: for effect on mites during the 7-day treatment period: 4 mM, data not shown; for Number of dead mites, Day 1 / Number of dead mites, Day 2 / Number of dead mites, Day 3 / Number of dead mites, Day 4 / Number of dead mites, Day 5 / Number of dead mites, Day 6 / Number of dead mites, Day 7: Li-salt 25 mM in sucrose syrup for 7 days; for Number of dead mites, Day 1 / Number of dead mites, Day 2 / Number of dead mites, Day 3 / Number of dead mites, Day 4 / Number of dead mites, Day 5 / Number of dead mites, Day 6 / Number of dead mites, Day 7 / Number of dead mites, Sum: 25 mites per cage, mean of three replicates; for Number of dead mites, Sum: Li-salt 25 mM in sucrose syrup, days 1-7
Excerpt: (§1) The bees were fed with Li-salt/sucrose solutions for 7 days. Survival rate of bees and mites were monitored daily and dead bees or mites were removed.

[2] = system: bees; conditions: for impact on bee viability: 4 mM, 7-day treatment period, data not shown; for Number of dead bees, Day 1 / Number of dead bees, Day 2 / Number of dead bees, Day 3 / Number of dead bees, Day 4 / Number of dead bees, Day 5 / Number of dead bees, Day 6 / Number of dead bees, Day 7: Li-salt 25 mM in sucrose syrup for 7 days; for Number of dead bees, Day 1 / Number of dead bees, Day 2 / Number of dead bees, Day 3 / Number of dead bees, Day 4 / Number of dead bees, Day 5 / Number of dead bees, Day 6 / Number of dead bees, Day 7 / Number of dead bees, Sum: 50 bees per cage, mean of three replicates; for Number of dead bees, Sum: Li-salt 25 mM in sucrose syrup, days 1-7
Excerpt: as §1

[3] = system: Varroa mites; assay: Experiment 5 cage comparison of LiCl, NaCl and MgCl2: dead mites; assay type: in vivo, Varroa destructor; conditions: for Number of dead mites, Day 1 / Number of dead mites, Day 2 / Number of dead mites, Day 3 / Number of dead mites, Day 4 / Number of dead mites, Day 5 / Number of dead mites, Day 6 / Number of dead mites, Day 7 / Number of dead mites, Sum: 25 mites per cage, mean of 6 cages (LiCl) or 3 cages; for Number of dead mites, Sum: 25 mM in 70% sucrose, days 1-7
Method: (§2) In a further experiment LiCl, NaCl and MgCl2 were selected and their acaricidal activity compared. The experiment was performed in cages of 50 bees, to each of which 25 mites were added. Bees in control cages received sucrose only. LiCl, NaCl or MgCl2 were added to 70% sucrose solutions at a final concentration of 25 mM each and fed to the bees for seven days. Survival rate of bees and mites were monitored daily. Dead bees and mites were removed from the cages.
(§3) The numbers represent mean values derived from 6 cages. […] Numbers for NaCl, MgCl2 and control represent mean values derived from 3 separate cages.

[4] = system: bees; assay: Experiment 4 cage test of MgCl2 (50 bees, 20 mites): bee health; assay type: in vivo, Apis mellifera; conditions: 100 mM in sucrose syrup
Method: To test the activity of bivalent ions we dissolved MgCl2 in sucrose syrup at a final concentration of 100 mM. 2 cages of 50 bees to which 20 mites were added were fed with sucrose syrup only and syrup containing 100 mM MgCl2.

[5] = system: bees; conditions: 50 bees per cage; for Number of dead bees, Day 1 / Number of dead bees, Day 2 / Number of dead bees, Day 3 / Number of dead bees, Day 4 / Number of dead bees, Day 5 / Number of dead bees, Day 6 / Number of dead bees, Day 7: 25 mM in 70% sucrose for seven days; for Number of dead bees, Day 1 / Number of dead bees, Day 2 / Number of dead bees, Day 3 / Number of dead bees, Day 4 / Number of dead bees, Day 5 / Number of dead bees, Day 6 / Number of dead bees, Day 7 / Number of dead bees, Sum: mean of 6 cages (LiCl) or 3 cages; for Number of dead bees, Sum: days 1-7
Method: as §2, §3

[6] = 25 mM in 70% sucrose for seven days

O=C([O-])[O-].[Li+].[Li+] [Li-carbonate, lithium carbonate]
effect on mites during the 7-day treatment period [1]: killed all mites | Number of dead mites, Day 1 [1]: 0.3 | Number of dead mites, Day 2 [1]: 3.0 | Number of dead mites, Day 3 [1]: 20.0 | Number of dead mites, Day 4 [1]: 1.7 | Number of dead mites, Day 5 [1]: 0.0 | Number of dead mites, Day 6 [1]: 0.0 | Number of dead mites, Day 7 [1]: 0.0 | Number of dead mites, Sum [1]: 25.0 | impact on bee viability [2]: without a significant negative impact on bee viability | Number of dead bees, Day 1 [2]: 0.7 | Number of dead bees, Day 2 [2]: 0.0 | Number of dead bees, Day 3 [2]: 0.0 | Number of dead bees, Day 4 [2]: 0.0 | Number of dead bees, Day 5 [2]: 0.0 | Number of dead bees, Day 6 [2]: 0.3 | Number of dead bees, Day 7 [2]: 0.7 | Number of dead bees, Sum [2]: 1.7

O=C([O-])CC(O)(CC(=O)[O-])C(=O)[O-].[Li+].[Li+].[Li+] [Li-citrate, lithium citrate]
effect on mites during the 7-day treatment period [1]: killed all mites | Number of dead mites, Day 1 [1]: 0.3 | Number of dead mites, Day 2 [1]: 10.0 | Number of dead mites, Day 3 [1]: 14.7 | Number of dead mites, Day 4 [1]: 0.0 | Number of dead mites, Day 5 [1]: 0.0 | Number of dead mites, Day 6 [1]: 0.0 | Number of dead mites, Day 7 [1]: 0.0 | Number of dead mites, Sum [1]: 25.0 | impact on bee viability [2]: without a significant negative impact on bee viability | Number of dead bees, Day 1 [2]: 0.0 | Number of dead bees, Day 2 [2]: 0.0 | Number of dead bees, Day 3 [2]: 0.3 | Number of dead bees, Day 4 [2]: 0.0 | Number of dead bees, Day 5 [2]: 0.7 | Number of dead bees, Day 6 [2]: 1.7 | Number of dead bees, Day 7 [2]: 0.3 | Number of dead bees, Sum [2]: 3.0

CC(O)C(=O)[O-].[Li+] (centres unmarked) [Li-lactate, lithium lactate]
effect on mites during the 7-day treatment period [1]: killed all mites | Number of dead mites, Day 1 [1]: 0.7 | Number of dead mites, Day 2 [1]: 14.0 | Number of dead mites, Day 3 [1]: 6.3 | Number of dead mites, Day 4 [1]: 4.0 | Number of dead mites, Day 5 [1]: 0.0 | Number of dead mites, Day 6 [1]: 0.0 | Number of dead mites, Day 7 [1]: 0.0 | Number of dead mites, Sum [1]: 25.0 | impact on bee viability [2]: without a significant negative impact on bee viability | Number of dead bees, Day 1 [2]: 0.3 | Number of dead bees, Day 2 [2]: 0.0 | Number of dead bees, Day 3 [2]: 0.0 | Number of dead bees, Day 4 [2]: 0.7 | Number of dead bees, Day 5 [2]: 2.0 | Number of dead bees, Day 6 [2]: 0.3 | Number of dead bees, Day 7 [2]: 1.7 | Number of dead bees, Sum [2]: 5.0

O=S(=O)([O-])[O-].[Li+].[Li+] [Li-sulfate, lithium sulfate]
effect on mites during the 7-day treatment period [1]: killed all mites | Number of dead mites, Day 1 [1]: 0.7 | Number of dead mites, Day 2 [1]: 18.0 | Number of dead mites, Day 3 [1]: 5.7 | Number of dead mites, Day 4 [1]: 0.7 | Number of dead mites, Day 5 [1]: 0.0 | Number of dead mites, Day 6 [1]: 0.0 | Number of dead mites, Day 7 [1]: 0.0 | Number of dead mites, Sum [1]: 25.0 | impact on bee viability [2]: without a significant negative impact on bee viability | Number of dead bees, Day 1 [2]: 0.0 | Number of dead bees, Day 2 [2]: 0.0 | Number of dead bees, Day 3 [2]: 0.0 | Number of dead bees, Day 4 [2]: 1.0 | Number of dead bees, Day 5 [2]: 3.7 | Number of dead bees, Day 6 [2]: 1.7 | Number of dead bees, Day 7 [2]: 0.0 | Number of dead bees, Sum [2]: 6.3

[Cl-].[Cl-].[Mg+2] [MgCl2]
Number of dead mites, Day 1 [3, 6]: 0.3 | Number of dead mites, Day 2 [3, 6]: 1.0 | Number of dead mites, Day 3 [3, 6]: 1.0 | Number of dead mites, Day 4 [3, 6]: 3.7 | Number of dead mites, Day 5 [3, 6]: 0.7 | Number of dead mites, Day 6 [3, 6]: 0.0 | Number of dead mites, Day 7 [3, 6]: 0.0 | Number of dead mites, Sum [3]: 6.7 | effect on bee health [4]: impair bee health substantially | Number of dead bees, Day 1 [5]: 0.0 | Number of dead bees, Day 2 [5]: 18.0 | Number of dead bees, Day 3 [5]: 18.3 | Number of dead bees, Day 4 [5]: 9.3 | Number of dead bees, Day 5 [5]: 4.3 | Number of dead bees, Day 6 [5]: 0.0 | Number of dead bees, Day 7 [5]: 0.0 | Number of dead bees, Sum ([5]; 25 mM in 70% sucrose): 50.0 | time after which all bees were dead ([5]; 25 mM in 70% sucrose): 5 days

[Cl-].[Na+] [NaCl]
acaricidal effect [3, 6]: fails to exhibit an acaricidal effect | Number of dead mites, Day 1 [3, 6]: 0.0 | Number of dead mites, Day 2 [3, 6]: 0.3 | Number of dead mites, Day 3 [3, 6]: 0.0 | Number of dead mites, Day 4 [3, 6]: 0.0 | Number of dead mites, Day 5 [3, 6]: 0.3 | Number of dead mites, Day 6 [3, 6]: 0.7 | Number of dead mites, Day 7 [3, 6]: 1.0 | Number of dead mites, Sum [3]: 2 and 2.3 | Number of dead bees, Day 1 [5]: 0.0 | Number of dead bees, Day 2 [5]: 0.0 | Number of dead bees, Day 3 [5]: 0.0 | Number of dead bees, Day 4 [5]: 0.3 | Number of dead bees, Day 5 [5]: 0.0 | Number of dead bees, Day 6 [5]: 0.0 | Number of dead bees, Day 7 [5]: 1.3 | Number of dead bees, Sum ([5]; 25 mM in 70% sucrose): 2 and 1.7
